PMC8305076, “Comprehensive Evaluation of Biological Effects of Pentathiepins on Various Human Cancer Cell Lines and Insights into Their Mode of Action” (International Journal of Molecular Sciences, 2021)
Read-outs that look alike come from different tables or passages of the source.

Key:
MCF-7 = assay: crystal violet proliferation assay; format: cell-based, human; conditions: normoxia, read-out: GI50 CV mean
Protocol: Distinct MTT cell viability and crystal violet cell proliferation assays were performed to assess the cytotoxicity of the compounds 1–6 on 14 human cancer cell lines. In the viability assay, cells with intact mitochondria and thus active dehydrogenases are competent to convert MTT to the corresponding insoluble formazan. The formazan can be photometrically detected after solubilization and allows for indirect conclusions about the viability of the cells as an IC50 value. In the crystal violet assay, cells are stained by the binding of the dye to the chromatin, thus allowing for a quantification of biomass that remains adherent after a treatment in comparison with a control after a specific time. Potency is defined as the growth inhibitory concentration 50% (GI50).
The antiproliferative effect of the pentathiepins on human cancer cell lines was analyzed by crystal violet assay based on the protocol of a previous publication. […] After dissolving in ethanol, the optical density was measured. Here, 1000 cells (250 for LCLC-103H) in 0.1 mL of medium were seeded per well of a 96 well plate and incubated at standard conditions for 24 h prior to treatment to allow for adhesion of the cells. A serial dilution of the test compounds was prepared in medium, covering final concentrations from 10.0 to 0.04 µM and 0.1 mL of the working solution added to each well in triplicate. Additionally, samples for each cell line were seeded and directly fixed after 24 h to measure the cell density at the beginning of treatment (t0). Fixation was performed by replacing medium with 0.1 mL of a solution containing 1% glutaraldehyde in Dulbecco’s buffer (0.2 g/L KCl, 0.1 g/L MgSO4·7 H2O, 1.55 g/L Na2HPO4·7 H2O, 0.2 g/L KH2HPO4, and 8 g/L NaCl in water) for 20 min. Plates were stored in 0.1 mL of Dulbecco’s buffer until further processing. After 96 h of treatment, the same fixation process was applied to the plates containing cells and test compounds. To stain the cells, 0.1 mL of an aqueous solution of crystal violet (0.02%) was added per well for 20 min, then discarded and the plates afterwards rinsed in clear water for 30 min. The dye was extracted in 50 µL of ethanol per well during 2 h of shaking. The plates were read at λ = 570 nm using a SpectraMax 384plus (Molecular Devices, Sunnyvale, CA, USA), and the proliferation of the treatment conditions was calculated in relation to a solvent control sample after subtracting the background value of the T0-plates. The GI50 (half-maximal growth inhibitory concentration) was calculated via nonlinear regression followed by interpolation of the dose–response graphs in Prism 7 (GraphPad, San Diego, CA, USA).

pBR322 plasmid DNA = assay: plasmid cleavage assay; format: biochemical; parameters: key to DNA cleavage: no impact (0); weak impact (+); strong impact (++); conditions: for open circular DNA (single-strand breaks) / linearized plasmid (double-strand breaks): pH 7.1, 20 h, 37 °C; for DNA cleavage: summary grade
Description: We pursued two different strategies to assess the potential of the pentathiepins to damage DNA: a simple plasmid cleavage assay and the cellular Comet assay. The former is a straightforward method to investigate whether a test compound can cleave DNA in vitro, and if so, whether single and/or double strand breaks are created, while the latter is an ex vivo assay that measures DNA fragmentation in single cells. In the plasmid cleavage assay, a single strand break would relax the supercoiled plasmid (scDNA) and lead to the detection of open circular DNA (ocDNA), whereas a double-strand break would linearize the plasmid (linDNA). An agarose gel electrophoresis enables the discrimination of the distinct plasmid conformations due to their specific electrophoretic mobilities (Figure 11a).
This assay was used to assess the cleaving ability of the pentathiepins in a cell-free setting and on the basis of procedures described in [54]. Plasmids occur in three different conformations with distinct electrophoretic mobilities that can finally be separated visualized via agarose gel electrophoresis. For each condition, 0.3 µg of pBR322 plasmid DNA was incubated with either the pentathiepin or a corresponding amount of the solvent acetonitrile. Incubations were performed in sodium phosphate buffer (50 mM) with or without GSH for 20 h at 37 °C in a water bath. Afterwards, the samples were separated by using an agarose gel (1%) run at 80 V for 2 h. Resulting bands were stained with GelRed® (Sigma-Aldrich, Taufkirchen, Germany),) and imaged and quantified via Gel-Doc EZ Imager and Image Lab (Bio-Rad, Feldkirchen, Germany), respectively. To assess the cleavage ability of the pentathiepins, we incubated the plasmid with either 5 or 25 µM of compound at a fixed concentration of GSH (2 mM). In another experiment, the amount of GSH varied between 1 µM and 10 mM, while the pentathiepin concentration was 5 µM. In contrast to the aforementioned settings where a buffer pH of 7.1 was applied, in a third attempt, the influence of different pH on the cleavage outcome was analyzed by adjusting the buffer pH to 5.1, 6.1, or 8.1 while using fixed concentrations of both test compound and GSH. Another attempt to gain insights into the cleaving mechanism was made by adding either catalase, superoxide dismutase (100 µg/mL each), or both to 5 µM pentathiepin with 2 mM GSH.

[1] = test system: HAP-1, HAP-1.KO.GPx1, A2780 and Siso; assay: adapted MTT assay with ferrostatin-1 (ferroptosis); format: cell-based, human; parameters: key: no impact (0); weak impact (+); strong impact (++); conditions: summary grade
Protocol: Not only apoptosis may contribute to the mainly ROS-based cytotoxicity of the pentathiepins but also ferroptosis, which derives from iron-dependent oxidative damage of the cell membrane. This form of programmed cell death is initiated via lipid peroxidation, which is normally held in check by the membrane-bound GPx4, an isoform of GPx1. As pentathiepins are potent GPx1 inhibitors, we indirectly investigated the possible role of GPx4 inhibition by precluding ferroptosis. Here, cells were incubated with a serial dilution of the respective pentathiepin, and either ferrostatin-1 (Fer-1) or vehicle control (DMSO) was added; Fer-1 is an established inhibitor of ferroptosis. The cell viability was measured after 48 h, and the activity of the compounds after adding or omitting Fer-1 was compared (Figure S50).
This experiment was performed similarly to that described in the previous section. To assess the importance of ferroptosis for cell death, a co-incubation of the cells with a serial dilution of the pentathiepins and ferrostatin-1 (Fer-1) as a known inhibitor of ferroptosis was performed. As negative control, the cells were incubated with the serial dilution of the test compounds and an amount of DMSO corresponding to the Fer-1 treatment solution. If ferroptosis were to be involved in the cytotoxicity of the compounds, the addition of Fer-1 should protect cells from the treatment with pentathiepin. […] The IC50 values were calculated as described above, and Fer-1-treated cells were set in relation to those without the additive.
Figure S50: Relative IC 50 in the four human cancer cell lines HAP -1, HAP -1.KO.GPx1, A2780 and Siso after treatment with pentathiepins 1-6 with either vehicle control (DMSO) or 1.5 or 6.0 µM ferrostatin -1 (Fer -1), respectively, for 48 h. The IC 50 of Fer-1-treated cells were relat ed to DMSO-treated samples (set to 1, dashed line) […]
(1 picture or pasted object on this page, not shown here)

seven cancer cell lines = assay: DCFDA flow cytometric ROS assay, acute; format: cell-based, human; conditions: 25 µM, 15 min, vs solvent control

Compound	GI50 (MCF-7; Homo sapiens, MCF7, 96 h)	open circular DNA (single-strand breaks) (pBR322 plasmid DNA; 5 µM, 2 mM GSH)	linearized plasmid (double-strand breaks) (pBR322 plasmid DNA; 25 µM, 2 mM GSH)	open circular DNA (single-strand breaks) (pBR322 plasmid DNA; 25 µM, 2 mM GSH)	DNA cleavage (pBR322 plasmid DNA)	Ferroptosis [1]	intracellular ROS levels (seven cancer cell lines)	fraction of damaged DNA (pBR322 plasmid DNA; 5 µM, 2 mM GSH, no enzyme added (CAT/SOD experiment))	open circular DNA (pBR322 plasmid DNA; 5 µM, 2 mM GSH, pH 5.1)	open circular DNA (pBR322 plasmid DNA; 5 µM, 2 mM GSH, pH 6.1)	open circular DNA (pBR322 plasmid DNA; 5 µM, 2 mM GSH, pH 8.1)	amount of broken plasmid (pBR322 plasmid DNA; 5 µM, 2 mM GSH, plus 100 µg/mL CAT)	amount of broken plasmid (pBR322 plasmid DNA; 5 µM, 2 mM GSH, plus 100 µg/mL SOD)	amount of broken plasmid (pBR322 plasmid DNA; 5 µM, 2 mM GSH, plus CAT and SOD)	GI50 (MCF-7; 96 h)	influence of buffer pH on plasmid cleavage (pBR322 plasmid DNA; 5 µM, 2 mM GSH, pH 5.1 to 8.1)
CCOc1c2c(c3ccc(C(=O)N4CCN(C(=O)c5ccc(F)cc5)CC4)cn13)SSSSS2 [Compound 5, (6-Ethoxy-[1,2,3,4,5]pentathiepino[6,7-a]indolizin-9-yl)(4-(4-fluorobenzoyl)piperazinyl)methanone]	248 nM	roughly 55%	about 4%	about 75%	++	0	burst of ROS in all cell lines	–	–	–	–	–	–	–	–	–
CCOc1c2c(c3ccc(C(=O)N4CCCCC4)cn13)SSSSS2 [Compound 2, (6-Ethoxy-[1,2,3,4,5]pentathiepino[6,7-a]indolizin-9-yl)(piperidinyl)methanone]	384 nM	–	about 4%	–	++	0	burst of ROS in all cell lines	–	–	–	–	–	–	–	–	–
CCOc1c2c(c3ccc(C(=O)N4CCOCC4)cn13)SSSSS2 [Compound 3, (6-Ethoxy-[1,2,3,4,5]pentathiepino[6,7-a]indolizin-9-yl)(morpholino)methanone]	153 nM	–	about 4%	about 75%	++	0	burst of ROS in all cell lines	about 43%	45%	49%	28%	19%	29%	19%	–	–
CCOc1c2c(c3ccc(C(=O)N(CC)CC)cn13)SSSSS2 [Compound 4, 6-Ethoxy-N,N’-diethyl-[1,2,3,4,5]pentathiepino[6,7-a]indolizine-9-carboxamide]	293 nM	roughly 55%	about 4%	about 75%	++	0	burst of ROS in all cell lines	–	–	–	–	–	–	–	–	–
CCOc1c2c(c3cnc4[nH]c(-c5ccc(OC)cc5)cc4n13)SSSSS2 [Compound 1, 11-Ethoxy-2-(4-methoxyphenyl)-3H-[1,2,3,4,5]pentathiepino[6′,7′:3,4]pyrrolo[1,2-a]pyrrolo[2,3-e]pyrazine]	210 nM	–	–	–	+	0	did not change the intracellular ROS levels in any of the cell lines	–	–	–	–	–	–	–	209 nM	a trend favoring lower pH for higher cleavage effects was observed but was not proven to be statistically significant
CCOc1c2c(c3ccc(C(=O)N4CCN(S(=O)(=O)c5ccc(C)cc5)CC4)cn13)SSSSS2 [Compound 6, (6-Ethoxy-[1,2,3,4,5]pentathiepino[6,7-a]indolizin-9-yl)(4-tosylpiperazinyl)methanone]	458 nM	–	–	–	+	0	only in three of the panel	–	–	–	–	–	–	–	–	–
